Experiments:
[1] = test system: anti-FGF-2 antibody; test: Enzyme-linked immune assay, FGF-2 binding to immobilized anti-FGF-2 antibody; conditions: concentration of 1 to 1,000 nM
Experimental: The next task was to assess influence of inhibitor RPT835 on binding of FGF-2 and FGFR2-Fc. […] In order to exclude unspecific effect of RPT835 on binding, one more enzyme-linked immune assay was carried out, in which the cavities were covered with immobilized anti-FGF-2 antibody. FGF-2±RPT835 in different concentrations is added to the cavities.

[2] = test system: p44/42(MAPK), Akt, mTOR, p70S6; test: Phosphorylation of intracellular kinases in KATO III cells; type: cell-based; conditions: FGF-2 and heparin
Experimental: In order to access the effect of inhibitor RPT835, characterized in his invention by formula II, on phosphorylation of the listed kinases, stomach cancer cells KATO III, which express FGFR2, was used. FGF-2 in concentration 1 mg/ml and heparin 10 mg/ml was added to the cells for stimulation of FGFR. RPT835 was added in various concentrations. Part of the cells left without addition of the inhibitor, and a part of the cells—without addition of both the inhibitor, and stimulating agents (control groups).
In order to assess the phosphorylation level, 2 standard methods were used: • Western-blotting using manual work. • Automatic capillary electrophoresis and immune-detection using automatic system Wes™ (ProteinSimple; SantaClara, Calif.).

[3] = test system: Mel Kor metastatic melanoma cells; test: Crystal Violet proliferation assay, Mel Kor; type: cell-based; conditions: hardly expressed FGFR2, bFGF 100 ng/ml, 7 days
Excerpt: (§1) This research used additional cell lines: SKOV3 (ovarian cancer, ATCC # HTB-77), HS578T (breast cancer, ATCC # HTB-126), T47D (breast cancer, ATCC #HTB-1336), modified line of non-small cells lung cancer A549, line of metastatic melanoma of skin Mel Kor (RF Patent No. 2287578), and additional study of antiangiogenic activity—cell line SVEC-4-10 (endothelial cells, ATCC #CRL-2181).
(§2) The cells were cultivated in environment RPMI-1640 (PANECO) (SKOV3, HS578T, T47D, Mel-Kor) or DMEM (PANECO) (SVEC-4-10) containing 10% of embryonal serum cattle (FCS, HyClone), 2 mM glutamine (PANECO), antibiotics (100 IU/mL penicillin and […] streptomycin (all PANECO)) at 37° C. and 5% CO2. Cells at 70-80% monolayer were used for the experiments.
(§3) The cells were planted in low density (30 t of cells/ml) in triplets on a 96-cavity plate in an environment containing 0.1% of FCS serum. […] Growth of cells was determined by the modified “Crystal Violet mitogenic method” for 7 days after the experiment start. […] The dye was dissolved in ethanol and measured on a spectrophotometer at 540-560 nm. The curve of cell proliferative activity inhibition was built by the dependence of the percent of the cell quantity (Y axis) on concentration of inhibitor RPT835 in the cavity of the plate (X axis). […]

[4] = test system: modified line of non-small cells lung cancer A549; test: Crystal Violet proliferation assay, modified A549; type: cell-based; conditions: Homo sapiens; modified A549 with pronounced expression of FGFR2
Excerpt: as §1, §2, §3

[5] = test system: human ovarian cancer SKOV-3; test: Pathomorphosis of SKOV-3 ovarian tumor in nude mice; type: in vivo; conditions: SKOV-3 in nude mice
Experimental: Immunodefficient mice (Nude, age of the mice as of the treatment start is 8 weeks; nursery “Pushchino”) were subcutaneously inoculated cells of FGFR2 of expressing line of human ovarian cancer SKOV-3. When the average tumor volume of 200 mm3 was achieved, the mice were randomized into the groups of control (standard chemotherapy with paclitaxel and caroplatin) and treatment (inhibitor RPT835). There were 10 mice in each group. Inhibitor RPT835 was assigned in a dose of 50 mg/kg, daily. The tumor volume was measured twice a week. When the tumor volume reached 2,000 mm3, the mice were subjected to euthanasia. Pathomorphosis of the tumor tissue was studied.

[6] = in vivo
Excerpt: Besides, acute toxicity of inhibitor RPT835 was studied in the following volume in a separate research: • Acute toxicity of the medicine was researched. […] The state of the animals after acute administration testifies of good tolerability of the medicine in doses exceeding the maximal therapeutic ones (about 4.3 mcg/kg) tens—hundreds of times. […]

[7] = target: T1, FRS2α (Homo sapiens, UniProt Q8WU20); test: FRS2α phosphorylation in breast cancer cells MDA MB 134 (FGFR1 system); type: cell-based; design: endogenous in cells; host or cells: MDA MB 134; conditions: MDA MB 134 cells
T1 sequence (Q8WU20 1-508): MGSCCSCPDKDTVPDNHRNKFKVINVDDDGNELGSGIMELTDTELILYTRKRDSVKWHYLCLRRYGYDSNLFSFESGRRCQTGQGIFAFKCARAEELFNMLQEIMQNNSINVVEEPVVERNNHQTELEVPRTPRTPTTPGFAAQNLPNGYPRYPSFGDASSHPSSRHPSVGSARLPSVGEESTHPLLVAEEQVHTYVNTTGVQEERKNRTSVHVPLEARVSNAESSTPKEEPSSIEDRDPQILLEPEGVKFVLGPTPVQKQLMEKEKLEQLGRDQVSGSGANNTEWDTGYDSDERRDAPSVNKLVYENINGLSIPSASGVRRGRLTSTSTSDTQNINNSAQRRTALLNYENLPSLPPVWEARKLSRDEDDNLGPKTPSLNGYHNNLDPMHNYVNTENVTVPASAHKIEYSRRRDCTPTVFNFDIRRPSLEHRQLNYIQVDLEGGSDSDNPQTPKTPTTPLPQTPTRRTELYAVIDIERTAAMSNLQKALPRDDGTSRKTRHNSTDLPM
Excerpt: The purpose of this research was assessment of specific action of inhibitor RPT835 specified in this invention with formula II, on interaction of […] and FRS2 and assessment of influence on interaction of other types of FGFR and FRS2. For the experiment, 2 cell lines were selected: • stomach cancer KATO III, expressing FGFR2, and • breast cancer MDA MB 134, expressing FGFR1.
The research procedure was the same as in the previous examples: the cells were cultivated in presence of RPT835 followed by stimulation with FGF-2 and heparin. The other part of the cells was cultivated in presence of RPT835. Phosphorylation of FGFR1 (in breast cancer cells) and FGFR2 (in stomach cancer cells), and also FRS2a (in the both cell lines) and some intracellular kinases (in breast cancer cells) was assessed using manual and automated Western blotting.

Cc1cc([N+](=O)[O-])c(NS(=O)(=O)c2cccc(C(=O)O)c2)cc1-c1cccnc1 [RPT835, 3-(N-(4-methyl-2-nitro-5-(pyridin-3-yl)phenyl)sulfamoyl)benzoic acid]
binding of FGF-2 with anti-FGF-2 antibody [1]: did not influence on binding of FGF-2 with anti-FGF-2 antibody | activity (phosphorylation) of p44/42(MAPK), Akt, mTOR, p70S6 compared to cells stimulated only with FGF-2 [2]: did not change | inhibition of proliferative activity [3]: did not block | IC50 [4]: 10 nM | part of the tumor represented by massive necroses ([5]; 50 mg/kg daily): over 75% | pathomorphosis of the tumor tissue ([5]; RPT835 50 mg/kg daily, control standard chemotherapy with paclitaxel and caroplatin): Pronounced therapeutic pathomorphosis | irritating effect on the mucous membrane of the gastrointestinal tract [6]: does not have an irritating effect | phosphorylation of FRS2α (system FGFR1) [7]: did not have influence
